System: MV-4-11 cells
Assay: Gene expression microarray analysis (Affymetrix PrimeView) and GSEA
Assay type: cell-based, human
Design: RFU PODN (11730768_x_at) / Fold change /veh PODN (11730768_x_at) / RFU LINC00158 (11744669_a_at) / Fold change /veh LINC00158 (11744669_a_at) / RFU DUSP10 (11751237_a_at) / Fold change /veh DUSP10 (11751237_a_at) / RFU ID3 (11757404_x_at) / Fold change /veh ID3 (11757404_x_at) / RFU PLEKHG5 (11737974_s_at) / Fold change /veh PLEKHG5 (11737974_s_at) / RFU LRRC4B (11730491_at) / Fold change /veh LRRC4B (11730491_at) / RFU GIMAP4 (11747438_a_at) / Fold change /veh GIMAP4 (11747438_a_at) / RFU KRT8 (11758183_x_at) / Fold change /veh KRT8 (11758183_x_at) / RFU CNN1 (11734310_a_at) / Fold change /veh CNN1 (11734310_a_at) / RFU VPS37D (11726825_at) / Fold change /veh VPS37D (11726825_at) / RFU C10orf10 (11716522_x_at) / Fold change /veh C10orf10 (11716522_x_at) / RFU KIR2DL2 /// KIR2DL4 /// KIR2DL5A /// KIR2DL5B /// KIR2DS1 /// KIR2DS2 /// KIR2DS3 /// KIR2DS4 /// KIR3DL3 /// KIR3DL3 /// KIR3DS1 (11738374_at) / Fold change /veh KIR2DL2 /// KIR2DL4 /// KIR2DL5A /// KIR2DL5B /// KIR2DS1 /// KIR2DS2 /// KIR2DS3 /// KIR2DS4 /// KIR3DL3 /// KIR3DL3 /// KIR3DS1 (11738374_at) / RFU C1QL1 (11718748_at) / Fold change /veh C1QL1 (11718748_at) / RFU TMPRSS4 (11747572_a_at) / Fold change /veh TMPRSS4 (11747572_a_at) / RFU HAMP (11756126_x_at) / Fold change /veh HAMP (11756126_x_at) / RFU RNFT2 (11725882_a_at) / Fold change /veh RNFT2 (11725882_a_at) / RFU NR4A2 (11747474_a_at) / Fold change /veh NR4A2 (11747474_a_at) / RFU ABCC12 (11746883_a_at) / Fold change /veh ABCC12 (11746883_a_at) / RFU TMEM136 (11760407_x_at) / Fold change /veh TMEM136 (11760407_x_at) / RFU CLDN22 /// WWC2 (11732394_at) / Fold change /veh CLDN22 /// WWC2 (11732394_at) / RFU HLA-DPB1 (11760878_x_at) / Fold change /veh HLA-DPB1 (11760878_x_at) / RFU SPINT1 (11716480_a_at) / Fold change /veh SPINT1 (11716480_a_at) / RFU GAP43 (11754022_s_at) / Fold change /veh GAP43 (11754022_s_at) / RFU A4GNT (11735810_at) / Fold change /veh A4GNT (11735810_at) / RFU PRB3 (11715151_x_at) / Fold change /veh PRB3 (11715151_x_at) / RFU TUBB4B (11761932_at) / Fold change /veh TUBB4B (11761932_at) / RFU CAPN14 (11732068_a_at) / Fold change /veh CAPN14 (11732068_a_at) / RFU TMCC2 (11721928_a_at) / Fold change /veh TMCC2 (11721928_a_at) / RFU IRGQ (11745062_a_at) / Fold change /veh IRGQ (11745062_a_at) / RFU FAM174B (11720279_a_at) / Fold change /veh FAM174B (11720279_a_at) / RFU TMPRSS4 (11748680_a_at) / Fold change /veh TMPRSS4 (11748680_a_at) / RFU FAM212B (11763350_a_at) / Fold change /veh FAM212B (11763350_a_at) / RFU PLEKHG5 (11743358_a_at) / Fold change /veh PLEKHG5 (11743358_a_at) / RFU ZSCAN30 (11745921_a_at) / Fold change /veh ZSCAN30 (11745921_a_at) / RFU CMKLR1 (11741424_a_at) / Fold change /veh CMKLR1 (11741424_a_at) / RFU LOC101060620 /// MAPK8IP1 (11723275_at) / Fold change /veh LOC101060620 /// MAPK8IP1 (11723275_at) / RFU SPTSSB (11747773_x_at) / Fold change /veh SPTSSB (11747773_x_at) / RFU PRSS12 (11739890_at) / Fold change /veh PRSS12 (11739890_at) / RFU BIN1 (11741810_x_at) / Fold change /veh BIN1 (11741810_x_at) / RFU WNT11 (11732464_a_at) / Fold change /veh WNT11 (11732464_a_at) / RFU C10orf10 (11716521_a_at) / Fold change /veh C10orf10 (11716521_a_at) / RFU C5orf56 (11738089_at) / Fold change /veh C5orf56 (11738089_at) / RFU CYB561 (11721691_x_at) / Fold change /veh CYB561 (11721691_x_at) / RFU ANKRD19P (11752326_a_at) / Fold change /veh ANKRD19P (11752326_a_at) / RFU OR2T12 /// OR2T33 /// OR2T8 (11738714_s_at) / Fold change /veh OR2T12 /// OR2T33 /// OR2T8 (11738714_s_at) / RFU VCAN (11748164_a_at) / Fold change /veh VCAN (11748164_a_at) / RFU JSRP1 (11732532_at) / Fold change /veh JSRP1 (11732532_at) / RFU KRTAP10-11 (11738290_x_at) / Fold change /veh KRTAP10-11 (11738290_x_at) / RFU MYO3A (11730013_a_at) / Fold change /veh MYO3A (11730013_a_at) / RFU EBF3 (11725865_a_at) / Fold change /veh EBF3 (11725865_a_at) / RFU CAMK2N1 (11719241_x_at) / Fold change /veh CAMK2N1 (11719241_x_at) / RFU C5orf56 (11738088_a_at) / Fold change /veh C5orf56 (11738088_a_at) / RFU OLFML3 (11715873_a_at) / Fold change /veh OLFML3 (11715873_a_at) / RFU LOC100653217 /// NTM (11731650_a_at) / Fold change /veh LOC100653217 /// NTM (11731650_a_at) / RFU MAPK11 (11762145_a_at) / Fold change /veh MAPK11 (11762145_a_at) / RFU FIZ1 (11724087_x_at) / Fold change /veh FIZ1 (11724087_x_at) / RFU OASL (11726364_x_at) / Fold change /veh OASL (11726364_x_at) / RFU SOX15 (11748057_x_at) / Fold change /veh SOX15 (11748057_x_at) / RFU CD79A (11719716_a_at) / Fold change /veh CD79A (11719716_a_at) / RFU HIST1H1D (11736915_at) / Fold change /veh HIST1H1D (11736915_at) / RFU CASKIN2 (11723855_a_at) / Fold change /veh CASKIN2 (11723855_a_at) / RFU LOC730098 (11760151_x_at) / Fold change /veh LOC730098 (11760151_x_at) / RFU OR4N2 (11742367_at) / Fold change /veh OR4N2 (11742367_at) / RFU PRRT2 (11749266_a_at) / Fold change /veh PRRT2 (11749266_a_at) / RFU SNX32 (11753110_a_at) / Fold change /veh SNX32 (11753110_a_at) / RFU CDHR5 (11726645_a_at) / Fold change /veh CDHR5 (11726645_a_at) / RFU RCAN1 (11760418_a_at) / Fold change /veh RCAN1 (11760418_a_at) / RFU FAM167A (11723789_a_at) / Fold change /veh FAM167A (11723789_a_at) / RFU FAM26E (11764081_at) / Fold change /veh FAM26E (11764081_at) / RFU ISYNA1 (11749810_s_at) / Fold change /veh ISYNA1 (11749810_s_at) / RFU ACY1 (11761880_at) / Fold change /veh ACY1 (11761880_at) / RFU 11764098_at / Fold change /veh 11764098_at / RFU SAMD14 (11745864_x_at) / Fold change /veh SAMD14 (11745864_x_at) / RFU NPB (11741838_a_at) / Fold change /veh NPB (11741838_a_at) / RFU TMPRSS6 (11731388_a_at) / Fold change /veh TMPRSS6 (11731388_a_at) / RFU KRTAP10-2 (11738614_at) / Fold change /veh KRTAP10-2 (11738614_at) / RFU ARHGAP8 /// PRR5-ARHGAP8 (11727945_x_at) / Fold change /veh ARHGAP8 /// PRR5-ARHGAP8 (11727945_x_at) / RFU KRTAP5-7 /// NADSYN1 (11734609_at) / Fold change /veh KRTAP5-7 /// NADSYN1 (11734609_at) / RFU RASL12 (11751679_a_at) / Fold change /veh RASL12 (11751679_a_at) / RFU CDKN2B (11736163_a_at) / Fold change /veh CDKN2B (11736163_a_at) / RFU PRF1 (11729649_at) / Fold change /veh PRF1 (11729649_at) / RFU, ZNF638 /// ZNF638-IT1 / Fold change vs veh, ZNF638 /// ZNF638-IT1 / RFU, PANK3 / Fold change vs veh, PANK3 / RFU, SH3YL1 / Fold change vs veh, SH3YL1 / RFU, ZEB2 / Fold change vs veh, ZEB2 / RFU, NRIP1 / Fold change vs veh, NRIP1 / RFU, PTTG1IP / Fold change vs veh, PTTG1IP / RFU, CAPN2 / Fold change vs veh, CAPN2 / RFU, MED14 / Fold change vs veh, MED14 / RFU, SNORA58 / Fold change vs veh, SNORA58 / RFU, C1orf63 / Fold change vs veh, C1orf63 / RFU, LRRFIP1 / Fold change vs veh, LRRFIP1 / RFU, NDUFAF7 / Fold change vs veh, NDUFAF7 / RFU, SLC12A2 / Fold change vs veh, SLC12A2 / RFU, IBTK / Fold change vs veh, IBTK / RFU, ESF1 / Fold change vs veh, ESF1 / Fold change vs veh, TMEM50B / RFU, TAOK1 / Fold change vs veh, TAOK1 / RFU, ACBD3 / Fold change vs veh, ACBD3 / RFU, TMA16 / Fold change vs veh, TMA16 / RFU, RWDD3 / Fold change vs veh, RWDD3 / RFU, BCAT1 / Fold change vs veh, BCAT1 / RFU, EDEM3 / Fold change vs veh, EDEM3 / RFU, TMEM33 / Fold change vs veh, TMEM33 / RFU, WDR75 / Fold change vs veh, WDR75 / RFU, AHCTF1 / Fold change vs veh, AHCTF1 / RFU, TFRC / Fold change vs veh, TFRC / RFU, ZDHHC17 / Fold change vs veh, ZDHHC17 / RFU, NOM1 / Fold change vs veh, NOM1 / RFU, ARL8B / Fold change vs veh, ARL8B / RFU, ZBTB11 / Fold change vs veh, ZBTB11 / RFU, TAMM41 / Fold change vs veh, TAMM41 / RFU, KIAA1704 /// LOC100996395 / Fold change vs veh, KIAA1704 /// LOC100996395 / RFU, ING1 / Fold change vs veh, ING1 / RFU, TRMT61B / Fold change vs veh, TRMT61B / RFU, FUBP3 / Fold change vs veh, FUBP3 / RFU, TP53 / Fold change vs veh, TP53 / RFU, TNKS2 / Fold change vs veh, TNKS2 / RFU, ZFP14 / Fold change vs veh, ZFP14 / RFU, ACTR2 / Fold change vs veh, ACTR2 / RFU, PPP3R1 / Fold change vs veh, PPP3R1 / RFU, PIK3R1 / Fold change vs veh, PIK3R1 / RFU, HNRNPA1 / Fold change vs veh, HNRNPA1 / RFU, RNF170 / Fold change vs veh, RNF170 / RFU, ZNF28 / Fold change vs veh, ZNF28 / RFU, RNGTT / Fold change vs veh, RNGTT / RFU, OGT / Fold change vs veh, OGT / RFU, BRD1 / Fold change vs veh, BRD1 / RFU, MARS / Fold change vs veh, MARS / RFU, ZNF655 / Fold change vs veh, ZNF655 / RFU, FAHD1 / Fold change vs veh, FAHD1 / RFU, BDP1 / Fold change vs veh, BDP1 / RFU, LRRCC1 / Fold change vs veh, LRRCC1 / RFU, ARID1A / Fold change vs veh, ARID1A / RFU, ZNF146 / Fold change vs veh, ZNF146 / RFU, ZNF330 / Fold change vs veh, ZNF330 / RFU, GPN3 / Fold change vs veh, GPN3 / RFU, C9orf123 / Fold change vs veh, C9orf123 / RFU, N4BP2L2 / Fold change vs veh, N4BP2L2 / RFU, ARFIP1 / Fold change vs veh, ARFIP1 / RFU, FAM179B / Fold change vs veh, FAM179B / RFU, BCL10 / Fold change vs veh, BCL10 / RFU, UHRF1BP1L / Fold change vs veh, UHRF1BP1L / RFU, BET1 / Fold change vs veh, BET1 / RFU, CNOT2 / Fold change vs veh, CNOT2 / RFU, ZNF268 / Fold change vs veh, ZNF268 / Fold change vs veh, ZNF507 / RFU, DGCR2 / Fold change vs veh, DGCR2 / RFU, WDSUB1 / Fold change vs veh, WDSUB1 / Fold change vs veh, HSP90B1 /// MIR3652 / RFU, ADSS / Fold change vs veh, ADSS / RFU, GK / Fold change vs veh, GK / RFU, ZNF148 / Fold change vs veh, ZNF148 / RFU, TAF9 / Fold change vs veh, TAF9 / RFU, SLC1A5 / Fold change vs veh, SLC1A5 / RFU, SLMO2 / Fold change vs veh, SLMO2 / RFU, ABCC4 / Fold change vs veh, ABCC4 / RFU, LOC101060439 /// RAP1B / Fold change vs veh, LOC101060439 /// RAP1B / RFU, RFX7 / Fold change vs veh, RFX7 / RFU, GTPBP10 / Fold change vs veh, GTPBP10 / RFU, CNEP1R1 / Fold change vs veh, CNEP1R1 / RFU, BIVM-ERCC5 /// ERCC5 / Fold change vs veh, BIVM-ERCC5 /// ERCC5 / RFU, ILF3 / Fold change vs veh, ILF3 / RFU 11762660_at / Fold change /veh 11762660_at / RFU VCAN (11757783_s_at) / Fold change /veh VCAN (11757783_s_at) / RFU DDX43 (11728927_at) / Fold change /veh DDX43 (11728927_at) / RFU KRT8 (11758188_x_at) / Fold change /veh KRT8 (11758188_x_at) / RFU NKD1 (11759106_at) / Fold change /veh NKD1 (11759106_at) / RFU SRD5A1 (11742802_a_at) / Fold change /veh SRD5A1 (11742802_a_at) / RFU TPSAB1 /// TPSB2 (11721975_s_at) / Fold change /veh TPSAB1 /// TPSB2 (11721975_s_at) / RFU GSTM3 (11746129_a_at) / Fold change /veh GSTM3 (11746129_a_at) / RFU IL23R (11737362_x_at) / Fold change /veh IL23R (11737362_x_at) / RFU TMEM51 (11727254_a_at) / Fold change /veh TMEM51 (11727254_a_at) / RFU PIWIL2 (11732686_x_at) / Fold change /veh PIWIL2 (11732686_x_at) / RFU ORM1 (11744905_x_at) / Fold change /veh ORM1 (11744905_x_at) / RFU CCDC152 (11743942_at) / Fold change /veh CCDC152 (11743942_at) / RFU ECM1 (11717891_a_at) / Fold change /veh ECM1 (11717891_a_at) / RFU IL23R (11748794_a_at) / Fold change /veh IL23R (11748794_a_at) / RFU TNFAIP8L3 (11732012_x_at) / Fold change /veh TNFAIP8L3 (11732012_x_at) / RFU MBOAT4 (11741988_at) / Fold change /veh MBOAT4 (11741988_at) / RFU 11764193_at / Fold change /veh 11764193_at / RFU TMEM53 (11763286_at) / Fold change /veh TMEM53 (11763286_at) / RFU MAGEB2 (11727129_at) / Fold change /veh MAGEB2 (11727129_at) / RFU TMEM200A (11744735_a_at) / Fold change /veh TMEM200A (11744735_a_at) / RFU CCDC152 (11751479_a_at) / Fold change /veh CCDC152 (11751479_a_at) / RFU FAM211A (11726209_a_at) / Fold change /veh FAM211A (11726209_a_at) / RFU RGS16 (11746705_a_at) / Fold change /veh RGS16 (11746705_a_at) / RFU VCAN (11755009_s_at) / Fold change /veh VCAN (11755009_s_at) / RFU RHOB (11743442_s_at) / Fold change /veh RHOB (11743442_s_at) / RFU RGS16 (11720943_a_at) / Fold change /veh RGS16 (11720943_a_at) / RFU RGS16 (11720944_at) / Fold change /veh RGS16 (11720944_at) / RFU, VPS4B / Fold change vs veh, VPS4B / RFU, CREB1 / Fold change vs veh, CREB1 / RFU, DNAJC13 / Fold change vs veh, DNAJC13 / RFU, GNAQ / Fold change vs veh, GNAQ / RFU, CDK5R1 / Fold change vs veh, CDK5R1 / RFU, ZRANB3 / Fold change vs veh, ZRANB3 / RFU, CUL4A / Fold change vs veh, CUL4A / RFU, CCNY / Fold change vs veh, CCNY / RFU, UFL1 / Fold change vs veh, UFL1 / RFU, COG3 / Fold change vs veh, COG3 / RFU, DIAPH2 / Fold change vs veh, DIAPH2 / RFU, SKA2 / Fold change vs veh, SKA2 / RFU, AFF3 / Fold change vs veh, AFF3 / RFU, LMF1 / Fold change vs veh, LMF1 / RFU, IPO11 / Fold change vs veh, IPO11 / RFU, DFFB / Fold change vs veh, DFFB / RFU, FOXP1 / Fold change vs veh, FOXP1 / RFU, CARD8 / Fold change vs veh, CARD8 / RFU, STRN3 / Fold change vs veh, STRN3 / RFU, ADK / Fold change vs veh, ADK / RFU, RASSF2 / Fold change vs veh, RASSF2 / RFU, WIPF1 / Fold change vs veh, WIPF1 / RFU, LARP1B / Fold change vs veh, LARP1B / RFU, RASA1 / Fold change vs veh, RASA1 / RFU, RB1 / Fold change vs veh, RB1 / RFU, PPFIA1 / Fold change vs veh, PPFIA1 / RFU, MAT2A / Fold change vs veh, MAT2A / RFU, CCT5 / Fold change vs veh, CCT5 / RFU, WDR92 / Fold change vs veh, WDR92 / RFU, CUX1 / Fold change vs veh, CUX1 / RFU, TTC7A / Fold change vs veh, TTC7A / RFU, TMEM135 / Fold change vs veh, TMEM135 / RFU, DEPTOR / Fold change vs veh, DEPTOR / RFU, CPM / Fold change vs veh, CPM / RFU, DNAJB6 / Fold change vs veh, DNAJB6 / RFU, CACNA2D3 / Fold change vs veh, CACNA2D3 / RFU, DTX4 / Fold change vs veh, DTX4 / RFU, TFCP2 / Fold change vs veh, TFCP2 / RFU, GMCL1 /// GMCL1P1 / Fold change vs veh, GMCL1 /// GMCL1P1 / RFU, AEBP2 / Fold change vs veh, AEBP2 / RFU, SNHG1 /// SNORD22 /// SNORD25 /// SNORD26 /// SNORD27 /// SNORD28 /// SNORD29 /// SNORD31 / Fold change vs veh, SNHG1 /// SNORD22 /// SNORD25 /// SNORD26 /// SNORD27 /// SNORD28 /// SNORD29 /// SNORD31 / Fold change (Aza/veh), C12orf56 (ProbeSet 11735607_a_at) / Fold change (ACY-1035/veh), C12orf56 (ProbeSet 11735607_a_at) / Fold change (Aza/veh), FGFR1OP (ProbeSet 11751329_s_at) / Fold change (ACY-1035/veh), FGFR1OP (ProbeSet 11751329_s_at) / Fold change (Aza/veh), VPS36 (ProbeSet 11739960_a_at) / Fold change (ACY-1035/veh), VPS36 (ProbeSet 11739960_a_at) / RFU SYPL1 (11715823_x_at) / Fold change /veh SYPL1 (11715823_x_at) / RFU IGFBP7 (11715501_s_at) / Fold change /veh IGFBP7 (11715501_s_at) / RFU REEP3 (11722064_at) / Fold change /veh REEP3 (11722064_at) / RFU IGLL1 (11728026_x_at) / Fold change /veh IGLL1 (11728026_x_at): dose or concentration left out as unconfirmed
Details: ProbeSet 11727545_at; LIST B

**Q.** `Nc1ncn([C@@H]2O[C@H](CO)[C@@H](O)[C@H]2O)c(=O)n1` [azacitidine] was tested. Which “RFU, PANK3” value did it give?
**A.** The value was 82.98 RFU.

Reference: PMC5218480 (PLoS ONE, 2017)
